The test system of test [1] is KG-1 human acute myeloid leukemia cells. Description: Cell viability assay of Promega, KG-1 cells. To be noted: for IC50: Homo sapiens, cell viability; for Ratio (IC50-value of capecitabine/IC50-value of test compound): fold potency versus capecitabine. It counts as cell-based. From the text:
Using the cell viability assay of Promega, the following IC50-values were obtained against KG-1 human acute myeloid leukemia cells (Table 3). The nucleoside carbamate capecitabine (Xeloda®) is included for comparison).

Test [2] deals with human colon cancer HCT-116 cells. The test is described as follows: HCT-116 xenograft test for in vivo oral anticancer activity. Set-up: species or system mice. To be noted: capecitabine 100 mg/kg vs 6a 25 mg/kg, oral. An excerpt: This example provides a description of HCT-116 xenograft test for in vivo oral anticancer activity of 6a.
Forty athymic nude mice (NCr nude, female, 5-6 weeks old, 20-25 g, Taconic) were inoculated with 6×10^6 exponentially growing human colon cancer HCT-116 cells, 1:1 ratio with Matrigel in 100 microliter into the right flank. Over the following 10 days, tumors reached a volume of 70 to 130 mm^3. Tumor volume were caliper-measured and calculated as length×width×width/2. Thirty mice were randomly allocated into three groups: (1) vehicle control group, (2) 6a test group, and (3) capecitabine (Cayman Chemical Co.) positive control group, with 10 mice into each group. Dosing solutions of each were prepared and kept refrigerated during the course of the test. Each mouse was dosed daily by oral administration.
After starting the dosing, body weights and tumor size measurements were recorded twice weekly to the end of the test.

In test [3] the target is T1, ribonucleotide reductase (RR) (Homo sapiens, UniProt P23921).
T1 sequence (P23921 1-792): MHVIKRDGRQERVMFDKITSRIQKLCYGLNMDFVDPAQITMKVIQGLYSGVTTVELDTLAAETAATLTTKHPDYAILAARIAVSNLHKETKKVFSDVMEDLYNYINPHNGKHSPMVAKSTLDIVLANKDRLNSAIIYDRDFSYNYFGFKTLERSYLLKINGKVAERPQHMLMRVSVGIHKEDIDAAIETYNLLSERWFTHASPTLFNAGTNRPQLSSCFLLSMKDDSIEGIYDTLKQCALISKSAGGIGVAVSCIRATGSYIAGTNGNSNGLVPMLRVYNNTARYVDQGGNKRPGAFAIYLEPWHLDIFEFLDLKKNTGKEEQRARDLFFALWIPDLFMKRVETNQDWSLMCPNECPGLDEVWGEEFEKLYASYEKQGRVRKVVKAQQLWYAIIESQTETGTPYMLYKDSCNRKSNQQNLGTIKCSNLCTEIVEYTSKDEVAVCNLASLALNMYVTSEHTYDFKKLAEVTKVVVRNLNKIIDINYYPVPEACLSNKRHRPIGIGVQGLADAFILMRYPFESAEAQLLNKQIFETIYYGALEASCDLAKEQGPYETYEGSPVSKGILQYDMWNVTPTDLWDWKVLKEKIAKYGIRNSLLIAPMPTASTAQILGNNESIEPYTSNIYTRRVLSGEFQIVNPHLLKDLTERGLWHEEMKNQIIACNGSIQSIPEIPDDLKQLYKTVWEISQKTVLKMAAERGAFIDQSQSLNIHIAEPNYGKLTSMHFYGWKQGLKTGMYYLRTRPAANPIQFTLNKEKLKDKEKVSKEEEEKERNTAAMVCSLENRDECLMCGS
T1 sequence (P31350 1-389 partner): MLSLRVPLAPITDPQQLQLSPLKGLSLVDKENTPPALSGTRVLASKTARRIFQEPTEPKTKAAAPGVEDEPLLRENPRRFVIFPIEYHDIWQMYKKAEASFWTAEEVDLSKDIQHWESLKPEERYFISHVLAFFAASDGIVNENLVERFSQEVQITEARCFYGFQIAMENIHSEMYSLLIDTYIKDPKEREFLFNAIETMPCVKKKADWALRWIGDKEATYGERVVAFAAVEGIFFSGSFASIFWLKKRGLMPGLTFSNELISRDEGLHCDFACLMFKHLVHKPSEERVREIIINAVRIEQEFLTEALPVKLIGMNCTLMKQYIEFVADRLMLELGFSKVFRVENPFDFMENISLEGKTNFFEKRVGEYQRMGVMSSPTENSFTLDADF
Description: Enzyme inhibition by intracellular metabolite: ribonucleotide reductase. To be noted: major target; inactivation by covalent bond formation at the active site. The class given is biochemical. An excerpt: (§1) Several intracellular targets of the present disclosure were identified as essential enzymes required for the biosynthesis and function of DNA. These enzymes are susceptible for inhibition by a multitude of cellular metabolites of the present disclosure, contributing to the observed cytotoxicity.
(§2) The inhibition of the enzyme targets, TS, RR, and MTase is irreversible, due to mechanism-based inactivation caused by the inhibitory metabolites. The molecular mechanism of the inactivation involves covalent bond formation with the sulfhydryl groups of the active site cysteine residues essential for enzyme activity (see Examples 6, 7 and 8).
F3dCDP acts as a suicide substrate of the enzyme forming a binary complex between the inhibitor and the enzyme via a covalent bond to the SH-group of the active site cysteine residue: […]

For test [4], the target named is T2, deoxycytidylate deaminase (DCTD) (Homo sapiens, UniProt P32321).
T2 sequence (P32321 1-178): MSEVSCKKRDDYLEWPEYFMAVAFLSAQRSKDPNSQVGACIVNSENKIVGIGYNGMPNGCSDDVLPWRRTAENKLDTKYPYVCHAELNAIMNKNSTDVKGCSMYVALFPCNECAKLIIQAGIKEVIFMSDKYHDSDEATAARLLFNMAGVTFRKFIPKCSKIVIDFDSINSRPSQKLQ
The test is described as follows: Enzyme inhibition by intracellular metabolite: deoxycytidylate deaminase. The class given is biochemical. To be noted: minor target.
Description: as §1
Intracellular esterase hydrolysis of the 5′-substituent of Formula I (R″=phosphorodiamidate), followed by cyclization leads to a cyclic phosphoester intermediate that collapses into a monophosphoramidate. Further hydrolysis by the phosphoramidase activity of HINT1 results in the formation of F3dCMP, the first intracellular phosphorylated metabolite of compounds of Formula I that serves as a substrate and competitive inhibitor of the enzyme dCMP deaminase, and is a precursor of all the other inhibitory nucleotides described above (see Table 1).

For test [5], the target named is T3, DNA polymerase alpha (Pol α) (Homo sapiens, UniProt P09884).
T3 sequence (P09884 1-1462): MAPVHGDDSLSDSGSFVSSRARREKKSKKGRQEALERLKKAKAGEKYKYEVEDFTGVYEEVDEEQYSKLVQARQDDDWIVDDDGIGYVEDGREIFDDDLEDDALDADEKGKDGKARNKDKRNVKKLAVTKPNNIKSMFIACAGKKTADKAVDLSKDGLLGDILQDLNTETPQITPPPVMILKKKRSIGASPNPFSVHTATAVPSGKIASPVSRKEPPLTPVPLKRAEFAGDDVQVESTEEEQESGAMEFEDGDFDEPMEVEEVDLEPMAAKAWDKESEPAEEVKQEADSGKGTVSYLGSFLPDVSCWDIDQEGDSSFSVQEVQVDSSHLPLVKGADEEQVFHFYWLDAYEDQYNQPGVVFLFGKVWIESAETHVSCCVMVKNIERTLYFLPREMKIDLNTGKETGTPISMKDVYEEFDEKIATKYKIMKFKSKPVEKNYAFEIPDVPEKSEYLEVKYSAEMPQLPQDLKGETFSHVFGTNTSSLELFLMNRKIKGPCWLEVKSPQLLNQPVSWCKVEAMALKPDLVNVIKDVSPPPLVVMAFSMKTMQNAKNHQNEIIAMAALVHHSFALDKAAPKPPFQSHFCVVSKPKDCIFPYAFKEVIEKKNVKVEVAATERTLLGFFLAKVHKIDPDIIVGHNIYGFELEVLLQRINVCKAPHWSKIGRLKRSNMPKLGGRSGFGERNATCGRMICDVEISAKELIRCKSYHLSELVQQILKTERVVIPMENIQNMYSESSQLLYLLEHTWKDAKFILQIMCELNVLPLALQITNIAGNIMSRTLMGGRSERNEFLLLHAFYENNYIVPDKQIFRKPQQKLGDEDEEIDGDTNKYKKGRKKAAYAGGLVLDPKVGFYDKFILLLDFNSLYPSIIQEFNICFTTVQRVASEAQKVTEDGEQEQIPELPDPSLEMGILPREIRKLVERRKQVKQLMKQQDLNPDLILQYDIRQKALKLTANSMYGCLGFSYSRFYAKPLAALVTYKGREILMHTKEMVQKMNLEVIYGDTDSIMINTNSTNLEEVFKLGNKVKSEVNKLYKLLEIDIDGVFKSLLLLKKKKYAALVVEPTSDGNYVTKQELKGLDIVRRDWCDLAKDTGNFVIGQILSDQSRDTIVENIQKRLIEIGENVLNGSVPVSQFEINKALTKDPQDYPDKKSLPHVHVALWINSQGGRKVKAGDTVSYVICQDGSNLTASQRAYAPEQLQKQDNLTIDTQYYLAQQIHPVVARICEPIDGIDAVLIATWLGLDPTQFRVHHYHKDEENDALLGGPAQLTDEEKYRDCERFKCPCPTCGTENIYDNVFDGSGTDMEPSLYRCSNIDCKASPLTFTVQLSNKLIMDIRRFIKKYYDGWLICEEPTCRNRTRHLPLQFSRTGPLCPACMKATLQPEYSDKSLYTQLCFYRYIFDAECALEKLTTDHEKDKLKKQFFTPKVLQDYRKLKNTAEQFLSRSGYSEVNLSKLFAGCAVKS
The test is described as follows: Enzyme inhibition by intracellular metabolites: DNA polymerase alpha. The following applies: major target; inhibition by DNA chain termination and/or DNA fragmentation. It counts as biochemical.
Description: as §1

For test [6], the target named is thymidylate synthase (TS) (Homo sapiens, UniProt P04818). Description: Enzyme inhibition by intracellular metabolite: thymidylate synthase. It counts as biochemical. To be noted: major target; inactivation by covalent bond formation at the active site.
Description: as §1, §2
F3dUMP acts as a suicide substrate of the enzyme thymidylate synthase by forming a covalent ternary complex with the enzyme and the cofactor 5,10-methylenetetrahydrofolate. The binding of the inhibitor to the enzyme is by a covalent bond to the SH-group of the active site cysteine residue involved in catalysis: […]

Structures are written as SMILES.

Sequence of thymidylate synthase (TS) (P04818 whole entry): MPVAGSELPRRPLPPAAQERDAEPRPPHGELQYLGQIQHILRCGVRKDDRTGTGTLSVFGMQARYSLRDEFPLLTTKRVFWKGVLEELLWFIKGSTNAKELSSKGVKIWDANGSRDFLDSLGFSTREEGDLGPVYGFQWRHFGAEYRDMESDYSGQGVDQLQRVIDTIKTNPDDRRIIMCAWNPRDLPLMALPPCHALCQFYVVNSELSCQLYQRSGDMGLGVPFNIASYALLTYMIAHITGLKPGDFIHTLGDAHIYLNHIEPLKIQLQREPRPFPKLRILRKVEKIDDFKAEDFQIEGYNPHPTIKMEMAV

As to `CCCCCOC(=O)Nc1nc(=O)n([C@@H]2O[C@H](C)[C@@H](O)[C@H]2O)cc1F` [Capecitabine, capecitabine, reference compound], in test [1], the concentration for half-maximal inhibition (IC50) amounted to 8.92 ± 1.54 µM and the “Ratio (IC50-value of capecitabine/IC50-value of test compound)” value was 1. The “dose of capecitabine required for anticancer activity comparable to 6a, relative to dose of 6a” value in test [2] is “about 4 times”.
On to `Nc1nc(=O)n([C@@H]2O[C@H](CO)[C@@H](O)C2(F)F)cc1F` [Compound 5, 2′-Deoxy-2′,2′,5-trifluorocytidine], for which, in test [1], the IC50 came out at 0.0341 ± 0.00527 µM and the “Ratio (IC50-value of capecitabine/IC50-value of test compound)” value was found to be 253.
Turning to `Nc1nc(=O)n([C@@H]2O[C@H](COP(=O)(O)OP(=O)(O)O)[C@@H](O)C2(F)F)cc1F` [Compound F3dCDP, 2′,2′,5-trifluorodeoxycytidine diphosphate], the “Reversibility of inhibition of RR” value in test [3] is on record as “Irreversible*”.
Take `Nc1nc(=O)n([C@@H]2O[C@H](COP(=O)(O)O)[C@@H](O)C2(F)F)cc1F` [Compound F3dCMP, 2′,2′,5-trifluorodeoxycytidine monophosphate]: the “Reversibility of inhibition of DCTD” value in test [4] was “reversible”.
Regarding `Nc1nc(=O)n([C@@H]2O[C@H](COP(=O)(O)OP(=O)(O)OP(=O)(O)O)[C@@H](O)C2(F)F)cc1F` [Compound F3dCTP, 2′,2′,5-trifluorodeoxycytidine triphosphate], the “Reversibility of inhibition of Pol α” value in test [5] is recorded as “Irreversible**”.
Turning to `O=c1[nH]c(=O)n([C@@H]2O[C@H](COP(=O)(O)O)[C@@H](O)C2(F)F)cc1F` [Compound F3dUMP, 2′,2′,5-trifluorodeoxyuridine monophosphate], in test [6], the “Reversibility of inhibition of TS” value is “Irreversible*”.
Turning to `O=c1[nH]c(=O)n([C@@H]2O[C@H](COP(=O)(O)OP(=O)(O)OP(=O)(O)O)[C@@H](O)C2(F)F)cc1F` [Compound F3dUTP, 2′,2′,5-trifluorodeoxyuridine triphosphate], the “Reversibility of inhibition of Pol α” value in test [5] is “Irreversible**”.
For `O=c1[nH]c(=O)n([C@H]2C[C@H](O)[C@@H](CO)O2)cc1C(F)(F)F` [Compound F3dUrd], the “substrate activity for thymidine phosphorylase (cleavage to produce FU)” value with thymidine phosphorylase is “did not serve as a substrate for thymidine phosphorylase”.
For `O=c1[nH]c(=O)n([C@H]2C[C@H](O)[C@@H](CO)O2)cc1F` [Floxuridine, reference compound], in the test with thymidine phosphorylase, the “substrate activity for thymidine phosphorylase (cleavage to produce FU)” value is “rapidly cleaved by thymidine phosphorylase to produce FU”.

The record behind these values is patent US10751358B2, “Multitargeted nucleoside derivatives” (priority 2017, dated 2020).
